Laboratory results reported in a melting point compilation (Tetko et al.; mined from patent text by program, amines drawn as free bases though some values may be those of a salt).

Row | Structure (SMILES) | melting point [°C]
1 | O=c1[nH]c2scc(Br)c2[nH]c1=O | 295 to 296
2 | CCc1cccc(-c2[nH]c(C(C)C)nc2-c2cccc(-c3ccc(S(C)(=O)=O)cc3)c2)n1 | 108 to 110
3 | Nc1ccccc1C(=O)Nc1cccc2cc(Br)cnc12 | 147 to 150
4 | NC1=NN(c2cccc(C(F)(F)F)c2)CC1 | 104 to 107
5 | CC(C)(C)c1ccc(CN=C2SCN(c3ccccc3)C(=O)N2CC(F)(F)F)cc1 | 90 to 91.5
6 | COc1cc(CSc2ccccn2)nc(N)n1 | 115 to 116
7 | CCCc1c(O)ccc2ccc(OCC(=O)OC)cc12 | 122 to 124
8 | Cc1ccc(OCC(O)CNC(C)C)c([N+](=O)[O-])c1[N+](=O)[O-] (stereo not given) | 122 to 124
9 | CCOC(=O)c1cn(-c2nccs2)c2c(F)c(F)c(F)cc2c1=O | 172 to 174
10 | C=CCN1C2CCC3C1CCC2N3C(c1ccc(C(=O)N2CCCCC2)cc1)c1cccc(O)c1 (stereo not given) | 70 to 73
11 | O=C1c2ccc(N3CCN(c4ccccc4)CC3)nc2CC2CCCCC12 (stereo not given) | 164 to 166
12 | O=C(O)c1ncc2[nH]c3c([N+](=O)[O-])cc([N+](=O)[O-])cc3c2n1 | 269 to 272
13 | COC(=O)c1cccc2c1C(Cc1ccnc(F)c1)(Cc1ccnc(F)c1)c1ccccc1-2 | 126 to 127
14 | COc1ccc2[nH]cc(C3CCN(CCCCN4C(=O)c5ccccc5C4=O)CC3)c2c1 | 155
15 | CCCCCCCCCCCNC(=O)NCc1ccccc1 | 97
16 | CCOC(=O)C1(C(=O)OCC)CCC2(NCCc3cc(OC)c(OC)cc32)C(C2c3cc(OC)c(OC)cc3CCN2C(C)=O)C1 (stereo not given) | 146 to 149
17 | Nc1c([N+](=O)[O-])cc(F)c(Cl)c1F | 96 to 97
18 | CC1Cc2c(c3cccnc3n(-c3cccc(C(F)(F)F)c3)c2=O)O1 (stereo not given) | 205 to 207
19 | CC(C)c1cccc(-c2ccc(F)cc2)c1OCCOc1ccc(C(=O)C(=O)O)cc1 | 123 to 125
20 | Cc1ccc(S(=O)(=O)n2ccc3c(Cl)c(F)cnc32)cc1 | 125

Row | Structure (SMILES) | melting point [°C]
21 | O=C(O)C(O)=CC(=O)c1ccc(Cl)c(Cl)c1 | 180 to 181
22 | O=C(O)c1ccc(Cl)cc1NCc1cccnc1 | 235 to 236
23 | COc1ccc(N)nc1C | 98 to 100
24 | O=C(O)CN1C(=O)C(=CC=Cc2ccccc2Br)SC1=S | 241 to 244
25 | CC(=O)OCC1OC(n2cc(C)c(=S)[nH]c2=S)CC1F (stereo not given) | 113 to 114
26 | COC(=O)C(C)(C)Cc1[nH]c2cc(OC)ccc2c1SC(C)(C)C | 133
27 | COc1ccc(N2CCN(c3c(C)c(C)c4c(c3C)C(N3CCCC3)C(C)(C)O4)CC2)cc1 (stereo not given) | 124 to 126
28 | CCCCOc1ccc2c(c1)C(N(C)S(C)(=O)=O)C(O)C(C)(C)O2 (stereo not given) | 138 to 140
29 | COC(=O)c1nn2c(C)csc2c1SSc1c(C(=O)OC)nn2c(C)csc12 | 193 to 194
30 | NN1CCC2(CC1)OC(c1ccccc1)c1ccccc12 (stereo not given) | 143 to 145
31 | COc1ccc(NC(=O)c2ccc(OC)c(C34CC5CC(CC(C5)C3)C4)c2)c(N)c1 | 211 to 213
32 | C=C(C)OC1CCC(=O)N1S(=O)(=O)c1ccccc1 (stereo not given) | 54 to 56
33 | Fc1ccc(C(OP2OCCO2)(c2ccc(F)cc2)c2ccccc2F)cc1 | 163 to 164
34 | CCCc1c(OCCOCCOc2ccc3ccc(OCC(=O)OC)cc3c2C(C)=O)ccc(C(C)=O)c1O | 89 to 90
35 | COc1cc(OCCN2CCCC2)cc(-c2nc3cc(OC)cc(OC)c3c(=O)[nH]2)c1 | 159 to 160
36 | O=C1CC(=O)N(c2ccccc2)c2cc(Cl)ccc2N1Cc1ccccc1 | 173 to 175
37 | Cn1c(CON2C(=O)c3ccccc3C2=O)ncc(OCc2ccccc2)c1=O | 170
38 | COc1ccc2c(c1)C(c1ccc(N)cc1)=NN(C(=O)C1CC1)C(C)C2 (stereo not given) | 93 to 95
39 | COCc1cc(O[C@@H]2c3ccccc3C[C@H]2O)c2nc(C)c(C)n2c1 (relative stereo) | 142 to 143
40 | CC(=O)NC[C@H]1CN(c2ccc(N3CCC(n4cc(C(C)=O)nn4)CC3)c(F)c2)C(=O)O1 | 220 to 222

Row | Structure (SMILES) | melting point [°C]
41 | O=C(Nc1cccc2c1C(=O)c1c-2n[nH]c1-c1ccc(N2CCNCC2)cc1)NN1CCC[C@@H]1CO | 190
42 | COC(=O)c1cccc(-c2nc(COc3ccc(C=O)cc3)c(C)o2)c1 | 103 to 104
43 | c1ncn2nncc2n1 | 249 to 251
44 | COCc1nc2c([N+](=O)[O-])cc(Br)cc2n1C | 145 to 147
45 | O=C(O)c1ccc2c(c1)CCC(CCN1CCC(c3ccccc3)CC1)C2=O (stereo not given) | 118 to 120
46 | CN1CCC(c2c[nH]c3ccc(Br)cc23)C1 (stereo not given) | 152 to 154
47 | CCCS(=O)(=O)c1c(S(N)(=O)=O)c(C)nn1C | 127 to 129
48 | Fc1ccccc1-c1nc2cccnc2o1 | 119 to 120
49 | O=C(O)c1cnc(Nc2cc3c4c(c2)CCCC4CCC3)nc1 | 296 to 298
50 | COc1ccc(-c2nc(CO)c[nH]2)cc1 | 171 to 173
51 | CN1CCN(c2cccc3c2C[C@H](NC(=O)c2ccc(C(=O)N4CCOCC4)cc2)CO3)CC1 | 222
52 | COC(=O)[C@H](CCSC)NC(=O)c1ccc(/C=C(/Cn2ccnc2)c2ccc(F)cc2)cc1 | 54 to 57
53 | CC1(C)C(=O)Nc2cc(C=O)ccc2N(CC2CC2)C1=O | 124 to 125
54 | O=C1c2ccccc2C(=O)N1CCc1cccc(F)c1 | 122 to 125
55 | COC(=O)c1nccnc1Br | 43 to 45
56 | CC12CC(=O)C3C(CCC4CC(O)CCC43C)C1CCC2C(=O)CCCl (stereo not given) | 110 to 112
57 | O=c1c2c(Cl)cccc2nc(C(S)c2ncnc3[nH]cnc23)n1-c1ccccc1F (stereo not given) | 244
58 | OCCCN1CC=C(c2cn(-c3ccc(F)cc3)c3ccc(C(F)(F)F)cc23)CC1 | 173 to 175
59 | CCOc1nn(-c2ccc(C(F)(F)F)cn2)cc1CCCOc1cc(OC)ccc1CCC(=O)O | 115 to 116
60 | COc1cccc(-c2cnc3[nH]cc(C(=O)C4(C)CCCCC4)c3n2)c1 | 173 to 175

Next, values leading:

Row | melting point [°C] | Structure (SMILES)
61 | 174 | CCCn1c(=O)c2c(nc(/C=C/c3ccc(OCC)c(OCC)c3)n2C)n(CCC)c1=O
62 | 176 to 178 | CCc1nc(C2CC2)c(C(=O)O)n1Cc1ccc2oc(-c3ccccc3C(=O)NS(=O)(=O)c3ccccc3)c(Br)c2c1
63 | 95 to 97 | CSc1cc(CF)nc(N)n1
64 | 147 to 150 | COC(=O)CCCCCCCCOC1OC(CO)C(O)C(OC2OC(CO)C(O)C(O)C2O)C1OC1OC(C)C(O)C(O)C1O (stereo not given)
65 | 79 to 81 | COc1cc(C(=O)Cc2ccccc2C)ccc1O
66 | 131 to 132 | CC(C)c1cccc(COCCCn2ccnc2)c1NC(=O)CC1c2ccccc2Oc2ccccc21
67 | 202 to 204 | Cc1cc2c(=O)c(Cc3cccnc3)cn3c4ccc(Br)cc4c(c1)c23
68 | 86 to 93 | Cn1ncc(C(=O)c2ccc(S(C)(=O)=O)c3c2CC2CON=C32)c1OC(=O)c1ccccc1 (stereo not given)
69 | 126 | Clc1ccccc1-c1nn2cc(-c3ccccc3)nc2s1
70 | 108 to 110 | COC(=O)[C@@H]1CCCN1C(=O)c1ccc(OC)c(O)c1[N+](=O)[O-]
71 | 194 to 199 | CCCC(=O)Nc1ccc(N2CCC(NC[C@H](O)COc3cccc4[nH]c5ccccc5c34)CC2)cc1
72 | 88.9 to 90 | O=C(NCCCc1ccncc1)N(CCCC12CC3CC(CC(C3)C1)C2)CC(F)(F)F
73 | 192 | O=C1CCC(c2ccccc2)(c2ccccc2)C2CN(C(Cc3ccccc3)=NCc3cccc4ccccc34)CC12 (stereo not given)
74 | 109 to 110 | CC(=O)Nc1ccc(C(C)(C)C)cc1OC(C)=O
75 | 119 to 120 | Cc1nnc(SCC(=O)C23CC4CC(CC(C4)C2)C3)n1C(C)C
76 | 142 to 144 | O=C1NCCc2c(NCc3ccccc3)cccc21
77 | 99 | CCOC(=O)C(C#N)=Cc1cc(Oc2c(Cl)cc(C(F)(F)F)cc2Cl)ccc1[N+](=O)[O-]
78 | 252 to 253 | COc1cc2nc(N3CCN(C(=O)C=Cc4ccoc4)CC3)nc(N)c2cc1OC
79 | 200 to 203 | CN1CCN(C2=Nc3cc(Cl)ccc3Nc3nn(C)nc32)CC1
80 | 213 to 214 | CC(C)(C)OC(=O)N1CCN(C(=O)c2cc3ccccc3[nH]2)CC1

Row | melting point [°C] | Structure (SMILES)
81 | 126 | CC(C)(Cc1ccc(Cl)cc1Cl)C(O)(Cn1cncn1)Cn1cncn1
82 | 214 to 216 | CCCCn1c(=O)c(C(=O)OCC)c(N)c2cnc(C)nc21
83 | 166 to 168 | O=C(O)C1=Cc2cc(Cl)cc(Cl)c2OC1C(F)(F)F (stereo not given)
84 | 108 to 112 | CCN(CC)CCN1CCN(Cc2ccc(O)cc2)C(c2ccccc2)C1 (stereo not given)
85 | 117 to 124 | NC(=C[N+](=O)[O-])NC1CCCC1
86 | 134 to 136 | COc1cc(NC2CCCCC2)c2ccccc2c1OC(C)=O
87 | 100 to 103 | CO[C@@H]1OC(C)(C)O[C@@]1(C)c1cccc(OCc2ccc3ccccc3c2)c1 (racemic)
88 | 90 to 102 | CC1(C)COC1(Cn1cncn1)c1ccc(Cl)cc1 (stereo not given)
89 | 94 to 95 | CCOC(=O)c1cc2cc(OCCCOC)cc([N+](=O)[O-])c2[nH]1
90 | 183 to 184 | CC(S)=C(C#N)C(=O)Nc1ccc(C(F)(F)F)cc1
91 | 131 to 132 | CCOC(=O)c1cn(Cc2cccnc2)nc1OCc1ccc(OCc2nc(-c3ccco3)oc2C)c(OC)c1
92 | 138 to 140 | OC1CCCc2nc3ccccc3c(NCCCOc3ccccc3)c21 (stereo not given)
93 | 162 to 163 | Cc1ccc(CNCCOc2cccc3[nH]c(=O)[nH]c23)cc1
94 | 56.2 to 59.2 | CC(C)(C)c1ccc(C=NOCCCOc2ccc(CC(=O)O)cc2)cc1
95 | 109 to 110 | COC(=O)c1c(O)c2cc(OCc3ccccc3)ccc2c(=O)n1CC(C)C
96 | 122 to 125 | Cn1ncc(-c2ccnc(Cl)n2)c1-c1ccc(Cl)cc1Cl
97 | 253 to 254 | CCc1c(C(=O)c2cc(C)cc(C#N)c2)[nH]c(=O)[nH]c1=O
98 | 108 to 109 | COC(=O)c1cccc(/C=C/c2ccccc2)c1
99 | 57 to 59 | COCC1CN(c2ccc(C3CCC(OCCC#N)CC3)cc2)C(=O)O1 (racemic)
100 | 167 to 168 | CC1OCCn2c1nc(C(=O)O)c(OCc1ccccc1)c2=O (stereo not given)
